Data on eleven molecules can be found in ChEMBL document CHEMBL4020850, “Discovery of LSZ102, a Potent, Orally Bioavailable Selective Estrogen Receptor Degrader (SERD) for the Treatment of Estrogen Receptor Positive Breast Cancer” (J Med Chem, 2018).

In brackets after ≈: the same amount, converted by molar mass. A value given as a limit tells only on which side of the number the result lay.

The nature of data set [1]: Clearance in C57BL/6 mouse at 1 mg/kg, iv or 3 mg/kg, po. In kind it is ADME, organism-based. Conditions: in vivo.
The nature of data set [2]: Cmax in C57BL/6 mouse at 3 mg/kg, po. In kind it is ADME, organism-based. Further details: dose 3 mg/kg, route oral. Conditions: in vivo.
Data set [3] is described as follows: Oral bioavailability in C57BL/6 mouse at 3 mg/kg. In kind it is ADME, organism-based. Conditions: in vivo.
A short description of data set [4]: Equilibrium solubility in pH 6.8 buffer at 1 mM after 16 hrs by HPLC based shake flask method. It is filed as physicochemical.
The nature of data set [5]: Clearance in Sprague-Dawley rat at 1 mg/kg, iv or 3 mg/kg, po. It is filed as ADME, organism-based. Conditions: in vivo.
The nature of data set [6]: Cmax in Sprague-Dawley rat at 3 mg/kg, po. It is filed as ADME, organism-based. Further details: dose 3 mg/kg, route oral. Conditions: in vivo.
Data set [7] in a line: Oral bioavailability in Sprague-Dawley rat at 3 mg/kg. In kind it is ADME, organism-based. The conditions noted are these: in vivo.
For the next data set, the target named is T1, Estrogen receptor (Homo sapiens, UniProt P03372).
T1 sequence (P03372 whole entry): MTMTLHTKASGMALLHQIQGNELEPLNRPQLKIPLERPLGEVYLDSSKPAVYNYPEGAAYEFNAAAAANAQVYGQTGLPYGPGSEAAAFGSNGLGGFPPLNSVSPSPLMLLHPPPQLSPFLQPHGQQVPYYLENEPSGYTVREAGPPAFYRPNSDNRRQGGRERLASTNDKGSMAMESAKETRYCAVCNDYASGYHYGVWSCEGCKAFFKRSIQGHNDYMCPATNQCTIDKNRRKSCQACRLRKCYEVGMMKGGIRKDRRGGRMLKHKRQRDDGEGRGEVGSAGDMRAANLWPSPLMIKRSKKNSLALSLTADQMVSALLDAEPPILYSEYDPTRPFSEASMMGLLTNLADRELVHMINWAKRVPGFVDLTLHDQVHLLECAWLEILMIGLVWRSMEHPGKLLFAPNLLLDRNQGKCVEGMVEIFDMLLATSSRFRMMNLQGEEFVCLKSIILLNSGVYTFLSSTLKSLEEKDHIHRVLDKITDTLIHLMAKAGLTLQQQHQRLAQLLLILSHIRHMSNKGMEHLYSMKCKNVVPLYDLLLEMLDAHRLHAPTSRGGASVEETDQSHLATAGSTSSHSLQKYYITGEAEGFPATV
Put plainly: Induction of selective estrogen receptor alpha degradation in human MCF7 cells harboring TK-ERE-Luc assessed as reduction in estradiol-induced transcriptional activity after 24 hrs by luciferase reporter gene assay. It is filed as cell-based. A general note: Reporter assays use an easily measured gene product as a stand-in for the process of interest.

A further data set concerns MCF7. Description: Antiproliferative activity against human MCF7 cells after 6 days in presence of estradiol by CellTiter-Glo assay. Conditions: MCF7, 144 h. A general note: ATP-based viability assays read luminescence as a measure of living cells.

The Cmax is the highest concentration seen after dosing. In general, bioavailability refers to dose-corrected exposure relative to a reference, in per cent. `Cc1cc(F)ccc1-c1sc2cc(O)ccc2c1Oc1ccc(/C=C/C(=O)O)cc1`: in [1], the clearance was 33 mL/min/kg. The peak level in data set [2] (Cmax) was 925 nM. For the same molecule, the bioavailability in [3] turned out to be 34%.

A word on the solubility (thermodynamic): it is the concentration in solution at equilibrium with solid. Consider `CNC(=O)/C=C/c1ccc(Oc2c(-c3ccc(O)cc3)sc3cc(O)ccc23)cc1`, for which, in data set [4], the thermodynamic solubility at 16 h, 1000 µM was less than 5 µM.

`O=C(O)/C=C/c1ccc(Oc2c(-c3ccc(O)cc3)sc3cc(O)ccc23)cc1` displayed a solubility (thermodynamic) at 16 h, 1000 µM in data set [4] of 340 µM (≈ 138 µg/mL). This molecule registered a clearance in data set [5] of 54 mL/min/kg. Besides, the Cmax in [6] turned out to be 80 nM. The same molecule registered a bioavailability in data set [7] of 6%.

On to `O=C(/C=C/c1ccc(Oc2c(-c3ccc(O)cc3)sc3cc(O)ccc23)cc1)NCCO`, for which the solubility (thermodynamic) at 16 h, 1000 µM in data set [4] stood at 11 µM (≈ 4.92 µg/mL).

On to `O=C(O)/C=C/c1ccc(Oc2c(-c3ccc(C(F)(F)F)cc3)sc3cc(O)ccc23)cc1`, for which the clearance in data set [1] came to 6 mL/min/kg; in data set [5] it was 30 mL/min/kg. Also, the peak concentration (Cmax) was 985 nM in [6] and 1380 nM in [2]. Moreover, the figures for the bioavailability in [7] and in data set [3] were 74% and 28%, respectively.

In turn, `Cn1cnc(/C=C/c2ccc(Oc3c(-c4ccc(O)cc4)sc4cc(O)ccc34)cc2)c1` had a thermodynamic solubility at 16 h, 1000 µM in data set [4] of 9 µM (≈ 3.96 µg/mL).

Take `O=C(O)/C=C/c1ccc(Oc2c(-c3ccc(F)cc3C(F)(F)F)sc3cc(O)ccc23)cc1`: the clearance in data set [1] amounted to 18 mL/min/kg. Moreover, the highest level in data set [2] (Cmax) was 1500 nM. This molecule displayed a bioavailability in data set [3] of 30%.

On to `Cc1cc(-c2sc3cc(O)ccc3c2Oc2ccc(/C=C/C(=O)O)cc2)ccc1O`, for which, in data set [1], the clearance amounted to 46 mL/min/kg. The same molecule had a Cmax in data set [2] of 46 nM. Besides, in data set [3], the bioavailability stood at 2%.

By IC50 is commonly meant the concentration at which inhibition is half-maximal. Consider `Oc1ccc(-c2sc3cc(O)ccc3c2Oc2ccc(/C=C/c3nnn[nH]3)cc2)cc1`, for which the IC50 at Estrogen receptor came to 219 nM. The molecule also yielded a solubility (thermodynamic) at 16 h, 1000 µM in data set [4] of 190 µM (≈ 81.4 µg/mL).

In turn, `Oc1ccc(-c2sc3cc(O)ccc3c2Oc2ccc(/C=C/c3c[nH]cn3)cc2)cc1` came in with a thermodynamic solubility at 16 h, 1000 µM in data set [4] of less than 5 µM.

For the molecule `CC/C(=C(\c1ccc(O)cc1)c1ccc(OCCN(C)C)cc1)c1ccccc1` [AFIMOXIFENE], the IC50 in the data set on MCF7 was 9.9 nM.
